Experimental data: publication PMC6121469 (International Journal of Molecular Sciences, 2018)

Key:
[1] = target: TASK-3/2loop2 (cap-less TASK-3 channel) (Cavia porcellus, UniProt Q9JL58); settings: symmetrical K+ conditions, HEK-293 cells
Kv2.1 channel = Kv2.1 channel (Rattus norvegicus, UniProt P15387); assay: cell-based; settings: HEK293, read-out: inhibition of Kv2.1 currents
TASK-3 WT channel [2] = target: T1, TASK-3 WT channel (Cavia porcellus, UniProt Q9JL58); settings: +80 mV, HEK-293 cells
TASK-3/2loop2/Y99A/Y205A = TASK-3/2loop2/Y99A/Y205A (Cavia porcellus, UniProt Q9JL58, Y205A, form not given); settings: HEK-293 cells; similar to TASK-3 WT
TASK-3/2loop2/Y205A = TASK-3/2loop2/Y205A (Cavia porcellus, UniProt Q9JL58, Y205A, form not given); settings: HEK-293 cells
TASK-3/2loop2/Y99A = TASK-3/2loop2/Y99A (Cavia porcellus, UniProt Q9JL58); settings: HEK-293 cells
TASK-3 WT channel [3] = target: T1, TASK-3 WT channel; assay: cell-based

T1 sequence (Q9JL58 whole entry): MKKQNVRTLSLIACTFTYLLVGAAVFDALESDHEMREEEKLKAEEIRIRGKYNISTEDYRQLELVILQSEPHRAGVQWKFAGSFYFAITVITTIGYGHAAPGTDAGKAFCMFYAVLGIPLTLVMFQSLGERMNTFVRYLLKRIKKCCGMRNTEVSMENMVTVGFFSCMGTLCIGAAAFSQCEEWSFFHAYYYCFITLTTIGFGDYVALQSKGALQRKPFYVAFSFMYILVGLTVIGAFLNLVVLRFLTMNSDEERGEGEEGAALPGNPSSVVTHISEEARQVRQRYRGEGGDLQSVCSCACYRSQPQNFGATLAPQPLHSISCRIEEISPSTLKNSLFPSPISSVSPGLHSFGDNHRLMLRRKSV
Chain of TASK-3/2loop2/Y205A (Q9JL58 with tags, fused parts or gaps Y205A, form open): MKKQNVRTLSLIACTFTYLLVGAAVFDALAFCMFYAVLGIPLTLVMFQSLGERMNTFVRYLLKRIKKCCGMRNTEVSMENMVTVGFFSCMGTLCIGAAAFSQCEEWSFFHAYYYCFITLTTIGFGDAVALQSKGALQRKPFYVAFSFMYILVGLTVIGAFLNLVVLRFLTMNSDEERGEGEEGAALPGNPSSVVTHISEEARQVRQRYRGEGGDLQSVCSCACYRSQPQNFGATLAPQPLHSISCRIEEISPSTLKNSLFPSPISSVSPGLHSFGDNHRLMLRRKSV
Chain of TASK-3/2loop2/Y99A (Q9JL58 with tags, fused parts or gaps): as the sequence (Q9JL58 with tags, fused parts or gaps Y205A, form open) above, with A127Y counted along it
Chain of TASK-3/2loop2 (cap-less TASK-3 channel) (Q9JL58 with tags, fused parts or gaps): as the sequence (Q9JL58 with tags, fused parts or gaps Y205A, form open) above, with A127Y counted along it
Chain of Kv2.1 channel (P15387 whole entry): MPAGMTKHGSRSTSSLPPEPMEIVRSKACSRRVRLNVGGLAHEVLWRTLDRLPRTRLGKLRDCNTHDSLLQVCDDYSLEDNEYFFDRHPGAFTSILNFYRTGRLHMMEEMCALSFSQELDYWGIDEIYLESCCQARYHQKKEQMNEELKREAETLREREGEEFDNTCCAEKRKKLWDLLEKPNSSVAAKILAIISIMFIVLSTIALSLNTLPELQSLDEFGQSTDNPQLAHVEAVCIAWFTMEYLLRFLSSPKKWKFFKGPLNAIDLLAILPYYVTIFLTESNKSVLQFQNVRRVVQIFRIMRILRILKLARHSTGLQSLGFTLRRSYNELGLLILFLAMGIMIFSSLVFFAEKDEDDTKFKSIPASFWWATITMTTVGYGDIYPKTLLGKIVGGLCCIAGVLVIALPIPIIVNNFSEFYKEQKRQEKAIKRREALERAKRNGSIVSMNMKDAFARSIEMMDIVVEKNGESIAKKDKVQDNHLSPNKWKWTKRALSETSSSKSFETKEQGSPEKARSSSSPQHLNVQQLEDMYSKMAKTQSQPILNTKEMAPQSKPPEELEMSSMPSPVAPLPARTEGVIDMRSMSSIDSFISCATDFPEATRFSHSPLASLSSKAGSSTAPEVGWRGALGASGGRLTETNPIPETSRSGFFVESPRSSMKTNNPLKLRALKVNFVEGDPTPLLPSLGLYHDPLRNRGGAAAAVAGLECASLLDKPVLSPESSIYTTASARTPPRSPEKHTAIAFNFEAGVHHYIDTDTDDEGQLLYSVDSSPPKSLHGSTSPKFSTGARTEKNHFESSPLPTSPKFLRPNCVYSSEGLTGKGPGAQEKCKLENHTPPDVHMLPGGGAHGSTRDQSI
Chain of TASK-3/2loop2/Y99A/Y205A (Q9JL58 with tags, fused parts or gaps Y205A, form open): as the sequence (Q9JL58 with tags, fused parts or gaps Y205A, form open) above

## CC[N+](CC)(CC)CC [TEA, tetraethylammonium]
[1]
  maximum inhibition: 90%
[1]; n = 4
  IC50: 11.8 ± 0.4 mM
Kv2.1 channel
  inhibition at 100000 µM: ~85%
TASK-3 WT channel [2]
  inhibition at saturating TEA concentrations: 30%
TASK-3/2loop2/Y99A/Y205A
  sensitivity to TEA blockade: essentially insensitive
TASK-3/2loop2/Y205A
  maximal inhibition: 59%
TASK-3/2loop2/Y205A; n = 3
  IC50: 63.9 ± 5.4 mM
TASK-3/2loop2/Y99A
  maximal inhibition: 46%
TASK-3/2loop2/Y99A; n = 4
  IC50: 17.3 ± 1.8 mM
TASK-3 WT channel [3]
  IC50: 12.5 ± 3.4 mM
